According to paper PMC11018627, “KdpD is a tandem serine histidine kinase that controls K^+ pump KdpFABC transcriptionally and post-translationally” (Nature Communications, 2024):

Tests used:
DgKdpD [1] = biological target: T1, DgKdpD (Deinococcus geothermalis, UniProt Q1J2K3); experiment: in vitro phosphorylation of E. coli KdpB, phosphoprotein gel stain; type: biochemical; conditions: activator; 1 mM c-di-AMP, 5 mM ATP, E. coli KdpFABC (KdpB D307N) as protein substrate, room temperature, 30 min
T1 construct: gene Dgeo_2852; short KdpD/Usp domain version, full chain; expressed in E. coli TK2281 from pBXC3H; His-tag removed with 3C protease on column

EcKdpD = biological target: T2, EcKdpD (Escherichia coli, UniProt P21865); experiment: in vitro phosphorylation of KdpB, phosphoprotein gel stain; type: biochemical; conditions: phosphate donor of serine kinase; 5 mM ATP, 400 mM KCl, room temperature, 30 min, KdpFABC (KdpB D307N) as protein substrate
T2 construct: gene kdpD; full-length, from pBXC3H (His-tag), produced in E. coli TK2281, purified in DDM or SMALPs
T2 sequence (P21865 1-894): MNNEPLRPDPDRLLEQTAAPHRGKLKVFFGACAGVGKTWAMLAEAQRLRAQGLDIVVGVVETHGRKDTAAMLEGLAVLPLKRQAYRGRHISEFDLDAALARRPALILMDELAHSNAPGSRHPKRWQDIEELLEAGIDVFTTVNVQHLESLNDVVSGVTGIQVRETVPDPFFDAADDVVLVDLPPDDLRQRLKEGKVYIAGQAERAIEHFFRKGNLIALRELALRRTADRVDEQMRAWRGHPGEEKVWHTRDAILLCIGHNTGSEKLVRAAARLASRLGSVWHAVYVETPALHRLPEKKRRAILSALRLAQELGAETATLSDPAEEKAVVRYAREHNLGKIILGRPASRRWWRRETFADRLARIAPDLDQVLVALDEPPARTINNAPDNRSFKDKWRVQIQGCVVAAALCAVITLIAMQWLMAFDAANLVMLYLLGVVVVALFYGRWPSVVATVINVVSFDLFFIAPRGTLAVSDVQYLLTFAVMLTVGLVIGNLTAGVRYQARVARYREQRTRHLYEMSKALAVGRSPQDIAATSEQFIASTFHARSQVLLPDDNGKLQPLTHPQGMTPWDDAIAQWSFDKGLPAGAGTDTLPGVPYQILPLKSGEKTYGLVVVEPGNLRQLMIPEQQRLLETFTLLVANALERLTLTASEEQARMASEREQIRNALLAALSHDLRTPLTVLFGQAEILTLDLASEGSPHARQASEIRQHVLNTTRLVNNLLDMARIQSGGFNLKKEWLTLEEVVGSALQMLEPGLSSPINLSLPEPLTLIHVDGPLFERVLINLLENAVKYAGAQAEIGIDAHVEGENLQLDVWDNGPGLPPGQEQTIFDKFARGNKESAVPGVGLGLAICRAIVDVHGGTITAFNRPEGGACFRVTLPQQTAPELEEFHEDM

DgKdpD [2] = biological target: T1, DgKdpD; experiment: as above; type: biochemical; conditions: phosphate donor of serine kinase; 5 mM ATP, 1 mM c-di-AMP, room temperature, 30 min, E. coli KdpFABC (KdpB D307N) as protein substrate
KdpDNTD = biological target: T3, KdpDNTD (Escherichia coli, UniProt P21865); experiment: as above; type: biochemical; conditions: phosphate donor of serine kinase; 5 mM ATP, 400 mM KCl, room temperature, 30 min, KdpFABC (KdpB D307N) as protein substrate; no ATPase activity alone
T3 construct: gene kdpD

KdpFABC = biological target: T4, KdpFABC (Escherichia coli, UniProt P03960); conditions: 2 mM ATP, 1 mM KCl, 37 °C; non-phosphorylated complex purified from E. coli TK2281
T4 construct: gene kdpB
T4 sequence (P03959 whole entry): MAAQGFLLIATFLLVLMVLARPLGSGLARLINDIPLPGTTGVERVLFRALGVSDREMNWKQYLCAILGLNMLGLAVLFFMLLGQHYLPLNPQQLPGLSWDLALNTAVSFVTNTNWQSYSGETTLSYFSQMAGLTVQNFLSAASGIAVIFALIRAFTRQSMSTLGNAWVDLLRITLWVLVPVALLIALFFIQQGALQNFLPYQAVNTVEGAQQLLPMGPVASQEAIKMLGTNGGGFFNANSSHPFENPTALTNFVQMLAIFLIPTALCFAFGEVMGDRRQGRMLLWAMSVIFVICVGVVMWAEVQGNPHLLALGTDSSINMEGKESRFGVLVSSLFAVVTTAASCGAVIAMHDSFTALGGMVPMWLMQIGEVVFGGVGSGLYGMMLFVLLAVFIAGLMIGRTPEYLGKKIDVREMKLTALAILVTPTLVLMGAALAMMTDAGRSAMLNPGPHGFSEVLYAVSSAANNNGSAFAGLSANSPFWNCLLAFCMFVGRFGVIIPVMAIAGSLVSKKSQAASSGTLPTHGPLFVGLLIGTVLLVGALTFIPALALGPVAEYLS
T4 sequence (P36937 whole entry, further chain): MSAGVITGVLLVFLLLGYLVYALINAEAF
T4 sequence (P03961 whole entry, further chain): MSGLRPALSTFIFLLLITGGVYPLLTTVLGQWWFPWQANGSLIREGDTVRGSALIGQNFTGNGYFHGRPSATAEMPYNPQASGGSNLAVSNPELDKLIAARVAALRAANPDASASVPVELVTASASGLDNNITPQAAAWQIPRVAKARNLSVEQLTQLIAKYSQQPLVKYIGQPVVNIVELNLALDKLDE
T4 sequence (P03960 whole entry): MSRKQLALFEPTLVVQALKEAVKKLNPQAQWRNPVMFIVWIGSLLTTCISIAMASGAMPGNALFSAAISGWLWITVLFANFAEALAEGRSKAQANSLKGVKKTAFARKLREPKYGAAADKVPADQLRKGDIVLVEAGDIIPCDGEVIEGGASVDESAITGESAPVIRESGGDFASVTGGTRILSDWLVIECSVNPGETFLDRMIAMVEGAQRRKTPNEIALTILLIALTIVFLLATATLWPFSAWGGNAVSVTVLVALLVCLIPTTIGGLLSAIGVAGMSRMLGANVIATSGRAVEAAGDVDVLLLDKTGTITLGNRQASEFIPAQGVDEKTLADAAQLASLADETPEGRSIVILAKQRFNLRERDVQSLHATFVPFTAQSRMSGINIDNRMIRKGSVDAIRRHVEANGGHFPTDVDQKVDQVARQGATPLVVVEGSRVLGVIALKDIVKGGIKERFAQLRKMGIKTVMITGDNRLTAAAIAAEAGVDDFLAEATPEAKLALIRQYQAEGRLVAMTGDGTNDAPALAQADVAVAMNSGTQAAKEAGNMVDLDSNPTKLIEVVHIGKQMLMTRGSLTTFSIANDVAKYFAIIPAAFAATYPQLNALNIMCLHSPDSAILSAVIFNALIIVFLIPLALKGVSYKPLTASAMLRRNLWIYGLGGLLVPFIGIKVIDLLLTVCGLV

T1 sequence (Q1J2K3 entry or part of it): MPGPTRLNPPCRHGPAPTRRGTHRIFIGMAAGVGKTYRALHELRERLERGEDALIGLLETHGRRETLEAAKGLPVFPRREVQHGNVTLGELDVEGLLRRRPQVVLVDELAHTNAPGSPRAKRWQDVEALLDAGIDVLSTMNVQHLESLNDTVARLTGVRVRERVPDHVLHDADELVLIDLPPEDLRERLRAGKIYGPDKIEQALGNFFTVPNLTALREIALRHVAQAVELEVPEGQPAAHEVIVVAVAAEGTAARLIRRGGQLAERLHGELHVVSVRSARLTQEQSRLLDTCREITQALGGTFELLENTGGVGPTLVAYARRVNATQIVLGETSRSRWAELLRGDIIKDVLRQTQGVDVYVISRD

| Structure (SMILES) | stimulation of ASK activity at 1 mM (DgKdpD [1]) | in vitro phosphorylation of KdpB, phosphoprotein gel stain (EcKdpD) | in vitro phosphorylation of KdpB, phosphoprotein gel stain (DgKdpD [2]) | in vitro phosphorylation of KdpB, phosphoprotein gel stain (KdpDNTD) | malachite green ATPase assay (KdpFABC) |
| --- | --- | --- | --- | --- | --- |
| Nc1ncnc2c1ncn2[C@@H]1O[C@@H]2COP(=O)(O)O[C@H]3[C@@H](O)[C@H](n4cnc5c(N)ncnc54)O[C@@H]3COP(=O)(O)O[C@H]2[C@H]1O [c-di-AMP] | phosphorylation of E. coli KdpB by DgKdpD was stimulated in the presence of c-di-AMP | – | – | – | – |
| Nc1ncnc2c1ncn2[C@@H]1O[C@H](COP(=O)(O)OP(=O)(O)OP(=O)(O)O)[C@@H](O)[C@H]1O [ATP] | – | Upon incubation with full-length KdpD, the phosphorylation was fully restored | DgKdpD can phosphorylate E. coli KdpB | This truncated construct remained able to phosphorylate KdpB | KdpFABC produced under these conditions showed a high ATPase activity |
